Source: patent publication US20030082194A1, “Compositions and methods for diagnosis and therapy of malignant mesothelioma” (priority 2000, published 2003)
Blank lines part the entries; values can stand above or below the molecule they belong to.

How the values were obtained:
[1] = system: targets incubated with WT1 peptides (EL-4); test: CTL chromium release assay, peptide-incubated targets; format: cell-based, mouse; conditions: for generation of peptide specific CTL following immunization: mice immunized with peptide, spleen cells stimulated in vitro, chromium release; for lysis of targets incubated with the relevant peptide by peptide specific CTL: chromium release assay
Protocol: (§1) Following immunization, spleen cells were stimulated in vitro and tested for the ability to lyse targets incubated with WT1 peptides. CTL were evaluated with a standard chromium release assay (Chen et al., 1994). […] target cells were incubated at 37° C. with 150 μCi of sodium ^51Cr for 90 min., in the presence or absence of specific peptides. Cells were washed three times and resuspended in RPMI with 5% fetal bovine serum. For the assay, 10^4 51Cr-labeled target cells were incubated with different concentrations of effector cells in a final volume of 200 μl in U-bottomed 96-well plates. Supernatants were removed after 4-7 hrs at 37° C., and the percentage specific lysis was determined by the formula:
(§2) % Specific lysis=100×(experimental release−spontaneous release)/(maximum release-spontaneous release).
(§3) P117-139, a peptide with motifs appropriate for binding to class I and class II MHC, was identified as described above using TSITES and BIMAS HLA peptide binding prediction analyses. Mice were immunized as described in Example 3. Following immunization, spleen cells were stimulated in vitro and tested for the ability to lyse targets incubated with WT1 peptides, as well as WT1 positive and negative tumor cells. CTL were evaluated with a standard chromium release assay.
Following immunization, spleen cells were stimulated in vitro with each of the 4 peptides and tested for ability to lyse targets incubated with WT1 peptides.

[2] = system: mouse B6 class I antigens (D^b or K^b molecules on RMA-S cells); test: Peptide binding to C57Bl/6 murine MHC on RMA-S cells, flow cytometry (Tables 48, 49); format: cell-based
Protocol: In brief, RMA-S cells were cultured for 7 hrs at 26° C. in complete medium supplemented with 1% FCS. A total of […] RMA-S cells were added into each well of a 24-well plate and incubated either alone or with the designated peptide (25 μg/ml) for 16 hrs at 26° C. and additional 3 hrs at 37° C. in complete medium. Cells were then washed three times and stained with fluorescein isothiocyanate-conjugated anti Db or anti-Kb antibody (PharMingen, San Diego, CA). Labeled cells were washed twice, resuspended and fixed in 500 μl of PBS with 1% paraformaldehyde and analyzed for fluorescence intensity in a flow cytometer (Becton-Dickinson FACSCalibur®). The percentage of increase of D^b or K^b molecules on the surface of the RMA-S cells was measured by increased mean fluorescent intensity of cells incubated with peptide compared with that of cells incubated in medium alone.

[3] = system: WT1 positive tumor cell lines (TRAMP-C, BLK-SV40); test: CTL chromium release assay, WT1 positive tumor cell lines; format: cell-based, mouse
Protocol: as §1, §2
as §3, with “assay. […]” for “assay.”

[4] = system: T cells / spleen cells of immunized B6 mice; test: Proliferative T cell response, thymidine incorporation assay after immunization of B6 mice with WT1 peptides; format: cell-based, mouse; conditions: for stimulation index (SI), proliferative T cell response: B6 mice immunized with WT1 peptides, thymidine incorporation, FIG. 3
[5] = system: WT1; test: Immunogenicity of WT1 protein immunization with MPL-SE, multiple dose titration in mice (Table 51); format: in vivo, mouse; conditions: MPL-SE adjuvant; doses 25 μg, 100 μg to 1000μg WT1 protein; female C57/B6 mice
Description: (§4) The purpose of this example is to analyze the immunogenicity and potential systemic histopathological and toxicological effects of WT1 protein immunization in a multiple dose titration in mice.
(§5) The experimental design for immunization of mice with WT1 protein is outlined in Table 51.

[6] = Systemic histopathological and toxicological effects of WT1 protein immunization in mice; format: in vivo, mouse
Description: as §4, §5
Special emphasis was put on evaluation of potential hematopoietic toxicity. The myeloid/erythroid ratio in sternum and femur marrow was normal.

[7] = even on an outpatient basis; cited from earlier work
[8] = target: Mouse B6 (C57Bl/6) MHC class I antigens on RMA-S cells (D^b or K^b) (mouse (C57Bl/6)); test: binding of 9-mer peptide to mouse B6 (H-2b) class I; RMA-S stabilisation assay as in Example 4
[9] = target: Mouse B6 (C57Bl/6) MHC class I antigens on RMA-S cells (D^b or K^b) (mouse (C57Bl/6)); test: RMA-S MHC stabilisation, peptide 25 ug/ml, FITC anti-Db or anti-Kb, flow cytometry (MFI increase over medium alone)
[10] = peptide 25 μg/ml, percentage of increase of Db or Kb molecules (mean fluorescent intensity) vs medium alone, Table 48
[11] = 9-mer peptides within p117-139, mouse B6 class I antigens, Table 49
[12] = mice immunized with WT1 protein

Molecule: ALLPAVPSL (listed as Homo sapiens) [SEQ ID NO:34]
- generation of peptide specific CTL following immunization [1]: peptide specific CTL lines were generated
- Binding Affinity to Mouse MHC Class I [2, 10]: 2.2%

Molecule: CMTWNQMNL (listed as Homo sapiens, listed as Mus musculus) [SEQ ID NO:49]
- lysis of targets incubated with the relevant peptide by peptide specific CTL [1]: lysed targets incubated with the p235-243 peptides
- generation of peptide specific CTL following immunization ([1]; listed as p235-243): peptide specific CTL lines were generated
- Binding Affinity to Mouse MHC Class I [2, 10]: 33.6%
- lysis of WT1 positive tumor cells by peptide specific CTL [3]: failed to lyse cell lines that expressed WT1 proteins

Molecule: GATLKGVAAGSSSSVKWTE (listed as Homo sapiens) [p244-262]
- stimulation indices (SI), proliferative T cell responses to the immunizing peptides ([4]; Vaccine A, bulk lines, peptide 25 μg/ml, 96 hr, FIG. 4A): No proliferative response

Molecule: NAPYLPSCL (listed as Homo sapiens) [SEQ ID NO:144]
- lysis of targets incubated with 9-mer peptide by CTL generated by immunization with p117-139 ([1]; FIG. 10A): lysed
- lysis of targets incubated with the relevant peptide by peptide specific CTL [1]: demonstrated peptide specific lysis
- Binding Affinity to Mouse MHC Class I [2, 11]: 79%
- binding to H-2b class I molecules / class I MHC molecules ([2]; peptide 25 μg/ml): shown to bind to H-2b class I molecules
- lysis of WT1 positive tumor cells by peptide specific CTL [3]: showed lysis of a WT1 positive tumor cell line

Molecule: NLYQMTSQL (listed as Homo sapiens) [SEQ ID NO:147]
- Binding Affinity to Mouse MHC Class I [2, 10]: 5.8%

Molecule: P117-125 (PSQASSGQA) [Peptide P117-125]
- Binding Affinity to Mouse MHC Class I [2, 11]: 2%

Molecule: P118-126 (SQASSGQAR) [Peptide P118-126]
- Binding Affinity to Mouse MHC Class I [2, 11]: 2%

Molecule: P119-127 (QASSGQARM) [Peptide P119-127]
- Binding Affinity to Mouse MHC Class I [2, 11]: 2%

Molecule: P120-128 (ASSGQARMF) [Peptide P120-128]
- Binding Affinity to Mouse MHC Class I [2, 11]: 1%

Molecule: P121-129 (SSGQARMFP) [Peptide P121-129]
- Binding Affinity to Mouse MHC Class I [2, 11]: 1%

Molecule: P124-132 (QARMFPNAP) [Peptide P124-132]
- Binding Affinity to Mouse MHC Class I [2, 11]: 1%

Molecule: P125-133 (ARMFPNAPY) [Peptide P125-133]
- Binding Affinity to Mouse MHC Class I [2, 11]: 1%

Molecule: P127-135 (MFPNAPYLP) [Peptide P127-135]
- Binding Affinity to Mouse MHC Class I [2, 11]: 2%

Molecule: P128-136 (FPNAPYLPS) [Peptide P128-136]
- Binding Affinity to Mouse MHC Class I [2, 11]: 1%

Molecule: P129-137 (PNAPYLPSC) [Peptide P129-137]
- Binding Affinity to Mouse MHC Class I [2, 11]: 1%

Molecule: P131-139 (APYLPSCLE) [Peptide P131-139]
- Binding Affinity to Mouse MHC Class I [2, 11]: 1%

Molecule: RDLNALLPAVPSLGGGG (listed as Homo sapiens) [p6-22]
- stimulation index (SI), proliferative T cell response [4]: 2.3
- proliferation of Vaccine A specific T cell line after single peptide in vitro stimulation ([4]; FIG. 5A, 5C): proliferation to p6-22 with no response to p117-139

Molecule: SCLESQPAI (listed as Homo sapiens) [SEQ ID NO:198]
- generation of peptide specific CTL following immunization [1]: peptide specific CTL lines were generated
- Binding Affinity to Mouse MHC Class I [2, 10]: 52%

Molecule: VRRVSGVAPTLVRS (listed as Mus musculus) [P299-313]
- stimulation index (SI), proliferative T cell response [4]: 3.3

Molecule: WT1 protein: WT1 protein used for vaccination of mice with MPL-SE as adjuvant
- WT1-specific antibody response [5]: elicited a strong WT1-specific antibody response
- cellular T-cell responses [5]: cellular T-cell responses
- histological evidence for toxicity in tissues ([6]; adrenal gland, brain, colon, heart, kidney, liver, lung, marrow, spleen and other listed tissues): No histological evidence for toxicity
- blood cell counts and blood chemistry (BUN, creatinine, bilirubin, albumin, globulin) [6, 12]: within the normal range
- myeloid/erythroid ratio in sternum and femur marrow [6, 12]: normal
- systemic histopathological or toxicological effects of immunization ([6]; mice, multiple dose titration): No systemic histopathological or toxicological effects

Molecule: monophosphoryl lipid A [MPL]
- dose known to be safe for human use [7]: 100 μg/m^2

Molecule: p221-229 (YSSDNLYQM)
- Binding Affinity to Mouse MHC Class I [2, 10]: 0.8%

Molecule: p228-236 (QMTSQLECM)
- Binding Affinity to Mouse MHC Class I [2, 10]: 1.2%

Molecule: p329-337 (GCNKRYFKL)
- Binding Affinity to Mouse MHC Class I [2, 10]: 1.2%

- Binding Affinity to Mouse MHC Class I (%) [8]: 1%
Molecule: SSGQARMFP [WT1 peptide P121-129 (…)]

- Binding Affinity to Mouse MHC Class I (%) [8]: 2%
Molecule: SQASSGQAR [WT1 peptide P118-126 (…)]

- Binding Affinity to Mouse MHC Class I (%) [8]: 2%
Molecule: MFPNAPYLP [WT1 peptide P127-135 (…)]

- Binding Affinity to Mouse MHC Class I (%) [8]: 1%
Molecule: QARMFPNAP [WT1 peptide P124-132 (…)]

- Binding Affinity to Mouse MHC Class I (% increase of Db or Kb on RMA-S cells) [9]: 0.8%
Molecule: YSSDNLYQM [WT1 peptide p221-229 (…)]

- Binding Affinity to Mouse MHC Class I (% increase of Db or Kb on RMA-S cells) [9]: 1.2%
Molecule: QMTSQLECM [WT1 peptide p228-236 (…)]

- Binding Affinity to Mouse MHC Class I (% increase of Db or Kb on RMA-S cells) [9]: 5.8%
Molecule: NLYQMTSQL [WT1 peptide p225-233 (…)]

- Binding Affinity to Mouse MHC Class I (%) [8]: 1%
Molecule: ARMFPNAPY [WT1 peptide P125-133 (…)]

- Binding Affinity to Mouse MHC Class I (%) [8]: 1%
Molecule: APYLPSCLE [WT1 peptide P131-139 (…)]

- Binding Affinity to Mouse MHC Class I (% increase of Db or Kb on RMA-S cells) [9]: 52%
Molecule: SCLESQPAI [WT1 peptide human p136-144 (…)]

- Binding Affinity to Mouse MHC Class I (% increase of Db or Kb on RMA-S cells) [9]: 2.2%
Molecule: ALLPAVPSL [WT1 peptide human p10-18 (…)]

- Binding Affinity to Mouse MHC Class I (%) [8]: 1%
Molecule: PNAPYLPSC [WT1 peptide P129-137 (…)]

- Binding Affinity to Mouse MHC Class I (%) [8]: 1%
Molecule: FPNAPYLPS [WT1 peptide P128-136 (…)]

- Binding Affinity to Mouse MHC Class I (% increase of Db or Kb on RMA-S cells) [9]: 1.2%
Molecule: GCNKRYFKL [WT1 peptide p329-337 (…)]

- Binding Affinity to Mouse MHC Class I (%) [8]: 79%
Molecule: NAPYLPSCL [WT1 peptide P130-138 (…)]

- Binding Affinity to Mouse MHC Class I (% increase of Db or Kb on RMA-S cells) [9]: 33.6%
Molecule: CMTWNQMNL [WT1 peptide p235-243 (…)]

- Binding Affinity to Mouse MHC Class I (%) [8]: 2%
Molecule: QASSGQARM [WT1 peptide P119-127 (…)]

- Binding Affinity to Mouse MHC Class I (%) [8]: 1%
Molecule: ASSGQARMF [WT1 peptide P120-128 (…)]

- Binding Affinity to Mouse MHC Class I (%) [8]: 2%
Molecule: PSQASSGQA [WT1 peptide P117-125 (…)]
